Key:
[1] = Half life in rat liver microsomes; assay type: ADME
Cytochrome P450 1A2 = target: T1, Cytochrome P450 1A2 (Homo sapiens, UniProt P05177); experiment: Inhibition of CYP1A2 (unknown origin) by luciferase reporter assay in presence of NADPH regeneration system; assay type: ADME
T1 sequence (P05177 whole entry): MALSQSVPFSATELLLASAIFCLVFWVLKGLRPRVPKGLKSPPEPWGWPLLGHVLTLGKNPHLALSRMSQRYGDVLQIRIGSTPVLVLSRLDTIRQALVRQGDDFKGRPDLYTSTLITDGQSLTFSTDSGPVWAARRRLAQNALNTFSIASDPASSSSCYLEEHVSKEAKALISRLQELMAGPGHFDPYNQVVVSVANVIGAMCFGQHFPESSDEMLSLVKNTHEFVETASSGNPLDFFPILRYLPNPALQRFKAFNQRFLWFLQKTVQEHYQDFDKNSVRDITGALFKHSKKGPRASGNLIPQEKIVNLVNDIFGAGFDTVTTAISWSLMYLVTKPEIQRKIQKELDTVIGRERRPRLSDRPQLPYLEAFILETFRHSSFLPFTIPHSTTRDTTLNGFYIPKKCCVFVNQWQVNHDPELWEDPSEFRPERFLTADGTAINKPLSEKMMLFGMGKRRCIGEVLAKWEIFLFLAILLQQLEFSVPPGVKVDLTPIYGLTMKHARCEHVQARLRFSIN

Cytochrome P450 2D6 = Cytochrome P450 2D6 (Homo sapiens, UniProt P10635); experiment: Inhibition of CYP2D6 (unknown origin) by luciferase reporter assay in presence of NADPH regeneration system; assay type: ADME
Neuromedin-K receptor [2] = target: T2, Neuromedin-K receptor (Homo sapiens, UniProt P29371); experiment: biochemical
T2 sequence (P29371 whole entry): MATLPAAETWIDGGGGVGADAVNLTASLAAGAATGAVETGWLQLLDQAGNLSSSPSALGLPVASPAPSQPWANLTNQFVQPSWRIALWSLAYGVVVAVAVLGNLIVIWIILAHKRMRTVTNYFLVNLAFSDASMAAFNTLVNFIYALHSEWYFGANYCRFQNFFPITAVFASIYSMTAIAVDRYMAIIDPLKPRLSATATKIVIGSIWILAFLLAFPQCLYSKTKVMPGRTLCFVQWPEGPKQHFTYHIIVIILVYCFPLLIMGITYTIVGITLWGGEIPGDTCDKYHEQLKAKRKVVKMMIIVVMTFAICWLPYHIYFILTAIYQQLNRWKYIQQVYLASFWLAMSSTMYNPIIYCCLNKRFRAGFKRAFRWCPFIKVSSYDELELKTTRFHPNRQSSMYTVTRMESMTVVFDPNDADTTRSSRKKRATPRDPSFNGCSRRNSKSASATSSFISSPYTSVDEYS
Description: Displacement of [3H]-SB222200 from recombinant human NK3R expressed in CHO cell membranes after 90 mins by scintillation counting analysis

[3] = Solubility of the compound in PBS buffer at pH 7.4 by shake-flask method; assay type: physicochemical
[4] = Lipophilicity, log D of the compound at pH 7.4; assay type: physicochemical; details: buffer, read-out: logD
Cytochrome P450 3A4 = Cytochrome P450 3A4 (Homo sapiens, UniProt P08684); experiment: Inhibition of CYP3A4 (unknown origin) by luciferase reporter assay in presence of NADPH regeneration system; assay type: ADME
in vivo [5] = details: Sprague-Dawley, rat, po, 3 mg/kg
Cytochrome P450 2C19 = Cytochrome P450 2C19 (Homo sapiens, UniProt P33261); experiment: Inhibition of CYP2C19 (unknown origin) by luciferase reporter assay in presence of NADPH regeneration system
Neuromedin-K receptor [6] = target: T2, Neuromedin-K receptor
Cytochrome P450 2C9 = Cytochrome P450 2C9 (Homo sapiens, UniProt P11712); experiment: Inhibition of CYP2C9 (unknown origin) by luciferase reporter assay in presence of NADPH regeneration system; assay type: ADME
[7] = Half life in human liver microsomes; assay type: ADME
[8] = target: Adenosine receptor A1 (Homo sapiens) (UniProt P30542); experiment: Displacement of [3H]DPCPX from recombinant human adenosine A1 receptor expressed in CHO cells after 60 mins by scintillation counting analysis relative to control; assay type: cell-based
[9] = Fraction unbound in rat brain at 5 uM after 4 hrs by equilibrium dialysis method; assay type: ADME, tissue-based
[10] = target: Gastrin/cholecystokinin type B receptor (Homo sapiens) (UniProt P32239); experiment: Inhibition of recombinant human CCK2 receptor expressed in CHO cells by radioligand displacement assay relative to control; assay type: cell-based; details: concentration not given here
Rattus norvegicus [11] = experiment: Unbound Cmax in Sprague-Dawley rat at 3 mg/kg, po by LC-MS/MS analysis; assay type: ADME, organism-based; parameters: dose 3 mg/kg, route oral; details: in vivo
[12] = Apparent permeability across basolateral to apical side in human Caco2 cells in presence of 0.1% bovine serum albumin; details: Caco-2
[13] = target: Prostaglandin E2 receptor EP4 subtype (Homo sapiens) (UniProt P35408); experiment: Inhibition of recombinant human prostanoid receptor EP4 expressed in HEK293 cells by radioligand displacement assay relative to control; assay type: cell-based; details: concentration not given here
[14] = target: Kappa-type opioid receptor (Homo sapiens) (UniProt P41145); experiment: Inhibition of KOR (unknown origin) at 10 uM relative to control
[15] = Fraction unbound in rat plasma at 5 uM after 4 hrs by equilibrium dialysis method; assay type: ADME, cell-free
in vivo [16] = details: Sprague-Dawley, rat, iv, 1 mg/kg
Description: Volume of distribution at steady state in Sprague-Dawley rat at 1 mg/kg, iv by LC-MS/MS analysis

Rattus norvegicus [17] = experiment: Unbound AUC in Sprague-Dawley rat at 3 mg/kg, po by LC-MS/MS analysis; assay type: ADME, organism-based; parameters: dose 3 mg/kg, route oral; details: in vivo
[18] = target: Adenosine receptor A3 (Homo sapiens) (UniProt P0DMS8); experiment: Inhibition of recombinant human adenosine A3 receptor expressed in HEK293 cells by radioligand displacement assay relative to control; assay type: cell-based; details: concentration not given here
Rattus norvegicus [19] = experiment: Unbound AUC in Sprague-Dawley rat at 1 mg/kg, iv by LC-MS/MS analysis; assay type: ADME, organism-based; parameters: dose 1 mg/kg, route intravenous; details: in vivo
in vivo [20] = details: Sprague-Dawley, rat, po, 3 mg/kg; remark: listed apart in the source
[21] = Apparent permeability across apical to basolateral side in human Caco2 cells in presence of 0.1% bovine serum albumin; details: Caco-2
[22] = Total systemic clearance in Sprague-Dawley rat at 1 mg/kg, iv by LC-MS/MS analysis; assay type: ADME, organism-based; parameters: dose 1 mg/kg, route intravenous; details: in vivo
[23] = target: Translocator protein (Homo sapiens) (UniProt P30536); experiment: Inhibition of benzodiazepine receptor (unknown origin) by radioligand displacement assay relative to control; details: concentration not given here
in vivo [24] = details: Sprague-Dawley, rat, iv, 1 mg/kg; remark: listed apart in the source
[25] = target: Muscarinic acetylcholine receptor M4 (Homo sapiens) (UniProt P08173); experiment: Displacement of [3H]4-DAMP from recombinant human muscarinic M4 receptor expressed in CHO cells at 1 uM after 60 mins by scintillation counting analysis relative to control; assay type: cell-based
[26] = target: Histamine H2 receptor (Homo sapiens) (UniProt P25021); experiment: Displacement of [125I]APT from recombinant human histamine H2 receptor expressed in CHO cells at 1 uM after 120 mins by scintillation counting analysis relative to control; assay type: cell-based
[27] = target: D(3) dopamine receptor (Homo sapiens) (UniProt P35462); experiment: Displacement of [3H]methyl-spiperone from recombinant human dopamine D3 receptor expressed in CHO cells at 1 uM by scintillation counting analysis relative to control; assay type: cell-based
[28] = target: Kappa-type opioid receptor (Homo sapiens) (UniProt P41145); experiment: Inhibition of KOR (unknown origin) at 1 uM relative to control
[29] = target: Mu-type opioid receptor (Homo sapiens) (UniProt P35372); experiment: Inhibition of recombinant human mu opioid receptor expressed in HEK293 cells at 1 uM by radioligand displacement assay relative to control; assay type: cell-based
[30] = target: Muscarinic acetylcholine receptor M5 (Homo sapiens) (UniProt P08912); experiment: Displacement of [3H]4-DAMP from recombinant human muscarinic M5 receptor expressed in CHO cells at 1 uM after 60 mins by scintillation counting analysis relative to control; assay type: cell-based
[31] = target: 5-hydroxytryptamine receptor 2A (Homo sapiens) (UniProt P28223); experiment: Displacement of [3H]ketanserin from recombinant human 5HT2A receptor expressed in HEK293 cells at 1 uM after 60 mins by scintillation counting analysis relative to control; assay type: cell-based
[32] = target: Muscarinic acetylcholine receptor M3 (Homo sapiens) (UniProt P20309); experiment: Displacement of [3H]4-DAMP from recombinant human muscarinic M3 receptor expressed in CHO cells at 1 uM after 60 mins by scintillation counting analysis relative to control; assay type: cell-based
[33] = target: Delta-type opioid receptor (Rattus norvegicus) (UniProt P33533); experiment: Displacement of [3H]naloxone from delta opioid receptor in rat cerebral cortex at 1 uM after 40 mins by scintillation counting analysis relative to control; assay type: tissue-based
[34] = target: 5-hydroxytryptamine receptor 1A (Homo sapiens) (UniProt P08908); experiment: Inhibition of recombinant human 5HT1A receptor expressed in HEK293 cells at 1 uM by radioligand displacement assay relative to control; assay type: cell-based
[35] = target: 5-hydroxytryptamine receptor 2B (Homo sapiens) (UniProt P41595); experiment: Displacement of [3H]mesulergine from recombinant human 5HT2B receptor expressed in CHO cells at 1 uM after 60 mins by scintillation counting analysis relative to control; assay type: cell-based
[36] = target: 5-hydroxytryptamine receptor 7 (Homo sapiens) (UniProt P34969); experiment: Inhibition of recombinant human 5HT7 receptor expressed in CHO cells at 1 uM by radioligand displacement assay relative to control; assay type: cell-based
[37] = target: Sodium-dependent noradrenaline transporter (Homo sapiens) (UniProt P23975); experiment: Displacement of [3H]nisoxetine from recombinant human norepinephrine transporter expressed in CHO cells at 1 uM after 120 mins by scintillation counting analysis relative to control; assay type: cell-based
[38] = target: Kappa-type opioid receptor (Rattus norvegicus) (UniProt P34975); experiment: Inhibition of rat recombinant KOR expressed in CHO cells at 1 uM by radioligand displacement assay relative to control; assay type: cell-based
[39] = target: Sodium-dependent dopamine transporter (Homo sapiens) (UniProt Q01959); experiment: Displacement of [3H]BTCP from recombinant human dopamine transporter expressed in CHO cells at 1 uM after 120 mins by scintillation counting analysis relative to control; assay type: cell-based
[40] = Ratio of apparent permeability across apical to basolateral over basolateral to apical side in human Caco2 cells in presence of 0.1% bovine serum albumin; assay type: ADME, cell-based; details: Caco-2

Chain of Kappa-type opioid receptor (Homo sapiens) (P41145 whole entry): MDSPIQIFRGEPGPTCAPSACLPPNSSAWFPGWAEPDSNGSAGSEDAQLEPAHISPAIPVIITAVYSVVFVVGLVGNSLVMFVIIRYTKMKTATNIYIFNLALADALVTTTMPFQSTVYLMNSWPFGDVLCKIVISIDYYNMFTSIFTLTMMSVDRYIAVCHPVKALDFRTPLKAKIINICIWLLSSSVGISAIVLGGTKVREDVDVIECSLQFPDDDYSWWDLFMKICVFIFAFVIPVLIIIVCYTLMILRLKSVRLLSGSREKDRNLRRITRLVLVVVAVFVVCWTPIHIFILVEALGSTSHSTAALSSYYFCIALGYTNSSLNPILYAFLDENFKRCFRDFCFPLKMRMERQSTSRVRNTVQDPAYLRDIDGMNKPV
Chain of Muscarinic acetylcholine receptor M3 (Homo sapiens) (P20309 whole entry, looked up): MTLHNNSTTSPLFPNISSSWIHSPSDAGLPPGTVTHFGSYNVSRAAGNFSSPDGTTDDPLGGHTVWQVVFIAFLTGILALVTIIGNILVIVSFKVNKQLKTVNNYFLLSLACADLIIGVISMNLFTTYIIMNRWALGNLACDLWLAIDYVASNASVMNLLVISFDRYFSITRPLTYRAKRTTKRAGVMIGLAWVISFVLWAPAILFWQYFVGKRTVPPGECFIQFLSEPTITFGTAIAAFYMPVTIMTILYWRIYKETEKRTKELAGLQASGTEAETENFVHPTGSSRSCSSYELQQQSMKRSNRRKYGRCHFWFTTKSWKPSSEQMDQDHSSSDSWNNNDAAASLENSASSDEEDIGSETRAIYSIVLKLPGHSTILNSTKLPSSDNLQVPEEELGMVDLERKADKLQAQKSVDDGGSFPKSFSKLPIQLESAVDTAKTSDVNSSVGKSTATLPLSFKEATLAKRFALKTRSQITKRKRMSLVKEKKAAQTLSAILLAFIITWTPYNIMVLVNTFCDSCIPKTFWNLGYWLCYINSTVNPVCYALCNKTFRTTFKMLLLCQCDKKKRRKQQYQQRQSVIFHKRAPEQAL
Chain of Sodium-dependent dopamine transporter (Homo sapiens) (Q01959 whole entry): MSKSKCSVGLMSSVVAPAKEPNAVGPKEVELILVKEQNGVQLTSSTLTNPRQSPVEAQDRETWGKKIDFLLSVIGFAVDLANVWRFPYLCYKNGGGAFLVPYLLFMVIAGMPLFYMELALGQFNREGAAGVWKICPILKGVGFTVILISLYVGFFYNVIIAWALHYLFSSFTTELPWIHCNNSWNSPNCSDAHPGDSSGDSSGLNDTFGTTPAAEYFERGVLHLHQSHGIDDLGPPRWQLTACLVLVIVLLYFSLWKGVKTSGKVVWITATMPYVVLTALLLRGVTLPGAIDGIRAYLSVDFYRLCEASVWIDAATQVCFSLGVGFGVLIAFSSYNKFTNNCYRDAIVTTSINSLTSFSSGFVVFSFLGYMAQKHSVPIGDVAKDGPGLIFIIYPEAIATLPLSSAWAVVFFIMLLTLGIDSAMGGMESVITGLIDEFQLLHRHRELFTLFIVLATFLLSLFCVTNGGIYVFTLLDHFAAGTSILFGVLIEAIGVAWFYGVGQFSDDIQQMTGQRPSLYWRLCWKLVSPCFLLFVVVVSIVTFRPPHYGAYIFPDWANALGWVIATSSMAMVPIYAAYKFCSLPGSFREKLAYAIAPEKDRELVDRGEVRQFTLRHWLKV
Chain of Cytochrome P450 3A4 (P08684 whole entry): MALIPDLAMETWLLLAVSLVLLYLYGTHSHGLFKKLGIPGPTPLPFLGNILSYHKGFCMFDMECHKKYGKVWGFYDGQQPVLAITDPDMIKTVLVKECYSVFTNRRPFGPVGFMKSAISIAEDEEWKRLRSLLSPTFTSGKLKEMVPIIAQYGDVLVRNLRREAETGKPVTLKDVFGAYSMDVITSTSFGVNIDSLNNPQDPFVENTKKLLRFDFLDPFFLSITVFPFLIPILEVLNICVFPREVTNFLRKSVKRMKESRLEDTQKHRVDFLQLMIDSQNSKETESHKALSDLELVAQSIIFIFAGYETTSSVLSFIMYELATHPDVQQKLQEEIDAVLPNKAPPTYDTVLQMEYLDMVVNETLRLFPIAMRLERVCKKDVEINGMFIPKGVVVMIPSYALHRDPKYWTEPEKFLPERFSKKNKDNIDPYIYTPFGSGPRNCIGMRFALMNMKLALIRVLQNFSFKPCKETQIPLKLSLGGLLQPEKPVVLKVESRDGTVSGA
Chain of Mu-type opioid receptor (Homo sapiens) (P35372 whole entry): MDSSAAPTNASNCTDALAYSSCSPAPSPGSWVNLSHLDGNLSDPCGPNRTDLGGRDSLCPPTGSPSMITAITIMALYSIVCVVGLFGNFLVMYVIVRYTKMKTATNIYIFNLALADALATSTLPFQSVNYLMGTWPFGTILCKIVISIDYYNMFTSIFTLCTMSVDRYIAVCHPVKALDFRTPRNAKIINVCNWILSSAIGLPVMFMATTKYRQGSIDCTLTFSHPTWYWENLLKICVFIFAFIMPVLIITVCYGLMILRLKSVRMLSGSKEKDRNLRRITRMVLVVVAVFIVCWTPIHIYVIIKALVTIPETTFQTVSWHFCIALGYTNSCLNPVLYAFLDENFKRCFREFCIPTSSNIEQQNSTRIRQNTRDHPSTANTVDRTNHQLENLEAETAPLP
Chain of Histamine H2 receptor (Homo sapiens) (P25021 whole entry): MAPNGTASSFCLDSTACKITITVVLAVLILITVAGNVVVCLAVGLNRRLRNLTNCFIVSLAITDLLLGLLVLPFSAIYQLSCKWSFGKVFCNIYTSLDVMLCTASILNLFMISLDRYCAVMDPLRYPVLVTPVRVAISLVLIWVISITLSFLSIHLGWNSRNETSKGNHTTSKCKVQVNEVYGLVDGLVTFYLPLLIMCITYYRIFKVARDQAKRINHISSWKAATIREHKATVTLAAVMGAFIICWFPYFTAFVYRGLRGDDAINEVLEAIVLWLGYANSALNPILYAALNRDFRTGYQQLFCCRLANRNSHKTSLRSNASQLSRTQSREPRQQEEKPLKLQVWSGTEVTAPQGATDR
Chain of Cytochrome P450 2C19 (P33261 whole entry): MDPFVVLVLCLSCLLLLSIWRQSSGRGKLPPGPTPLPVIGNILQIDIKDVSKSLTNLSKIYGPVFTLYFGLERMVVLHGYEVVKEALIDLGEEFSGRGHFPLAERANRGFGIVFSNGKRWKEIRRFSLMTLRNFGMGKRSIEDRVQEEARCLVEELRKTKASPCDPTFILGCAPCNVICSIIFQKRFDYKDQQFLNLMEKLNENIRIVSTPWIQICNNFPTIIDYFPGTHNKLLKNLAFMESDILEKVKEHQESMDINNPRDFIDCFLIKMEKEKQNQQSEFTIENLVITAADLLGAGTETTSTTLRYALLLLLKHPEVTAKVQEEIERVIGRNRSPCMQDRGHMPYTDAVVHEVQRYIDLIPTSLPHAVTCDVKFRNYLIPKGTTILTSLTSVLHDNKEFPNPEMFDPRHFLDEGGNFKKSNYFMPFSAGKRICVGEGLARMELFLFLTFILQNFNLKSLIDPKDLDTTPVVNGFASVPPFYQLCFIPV
Chain of Translocator protein (Homo sapiens) (P30536 whole entry): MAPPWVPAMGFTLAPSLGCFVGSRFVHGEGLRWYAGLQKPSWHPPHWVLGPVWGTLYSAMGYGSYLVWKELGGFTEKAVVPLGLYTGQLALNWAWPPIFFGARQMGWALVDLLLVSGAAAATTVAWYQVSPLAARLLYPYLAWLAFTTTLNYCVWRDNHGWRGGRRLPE
Chain of 5-hydroxytryptamine receptor 1A (Homo sapiens) (P08908 whole entry): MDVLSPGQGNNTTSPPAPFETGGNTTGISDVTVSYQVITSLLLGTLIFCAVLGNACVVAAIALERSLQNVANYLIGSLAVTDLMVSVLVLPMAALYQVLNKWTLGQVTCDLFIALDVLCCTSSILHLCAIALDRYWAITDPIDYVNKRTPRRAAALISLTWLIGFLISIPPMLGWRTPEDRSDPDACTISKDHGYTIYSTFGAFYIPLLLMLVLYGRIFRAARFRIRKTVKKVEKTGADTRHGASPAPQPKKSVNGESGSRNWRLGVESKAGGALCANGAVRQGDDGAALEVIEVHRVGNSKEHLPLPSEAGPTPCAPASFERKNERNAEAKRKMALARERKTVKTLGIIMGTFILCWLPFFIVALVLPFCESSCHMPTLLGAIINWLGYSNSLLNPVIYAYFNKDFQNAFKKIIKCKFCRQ
Chain of Muscarinic acetylcholine receptor M4 (Homo sapiens) (P08173 whole entry): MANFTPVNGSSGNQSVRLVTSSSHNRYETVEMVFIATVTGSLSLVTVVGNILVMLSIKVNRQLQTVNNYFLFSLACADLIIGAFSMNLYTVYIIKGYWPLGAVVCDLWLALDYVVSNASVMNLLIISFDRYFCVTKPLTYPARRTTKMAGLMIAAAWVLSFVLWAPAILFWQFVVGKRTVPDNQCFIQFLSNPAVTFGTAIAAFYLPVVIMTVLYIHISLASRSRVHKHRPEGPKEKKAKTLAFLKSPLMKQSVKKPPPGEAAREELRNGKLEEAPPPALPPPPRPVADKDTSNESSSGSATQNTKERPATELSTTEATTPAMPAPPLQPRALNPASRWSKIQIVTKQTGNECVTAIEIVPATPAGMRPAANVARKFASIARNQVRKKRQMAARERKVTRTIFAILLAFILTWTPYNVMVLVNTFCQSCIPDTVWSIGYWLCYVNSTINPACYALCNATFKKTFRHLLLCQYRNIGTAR
Chain of 5-hydroxytryptamine receptor 7 (Homo sapiens) (P34969 whole entry): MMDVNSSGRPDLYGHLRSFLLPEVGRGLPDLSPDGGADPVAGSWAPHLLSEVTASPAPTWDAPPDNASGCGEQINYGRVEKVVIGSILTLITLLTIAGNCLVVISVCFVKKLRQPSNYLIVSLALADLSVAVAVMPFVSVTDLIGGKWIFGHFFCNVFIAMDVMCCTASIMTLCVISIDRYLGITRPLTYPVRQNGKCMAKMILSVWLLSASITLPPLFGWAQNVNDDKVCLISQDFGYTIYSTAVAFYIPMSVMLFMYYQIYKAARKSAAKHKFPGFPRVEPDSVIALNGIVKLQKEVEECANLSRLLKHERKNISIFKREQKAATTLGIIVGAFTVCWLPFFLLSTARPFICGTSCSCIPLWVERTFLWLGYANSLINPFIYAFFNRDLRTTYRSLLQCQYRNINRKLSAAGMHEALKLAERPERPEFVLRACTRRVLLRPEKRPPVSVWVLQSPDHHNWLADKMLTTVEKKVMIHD

## O=C(c1ccc(F)cc1)N1CCn2c(nnc2-c2ccccn2)C1
[1]
  half-life: > 4 h
Cytochrome P450 1A2
  IC50: 27 µM
Cytochrome P450 2D6
  IC50: 15 µM
Neuromedin-K receptor [2]
  Ki: 4.5 µM
[3]
  solubility thermodynamic: ≥ 200 µM
[4]
  logD: 1.1
Cytochrome P450 3A4
  IC50: > 100 µM
In vivo [5]
  bioavailability: 108%
Cytochrome P450 2C19
  IC50: 14 µM
Neuromedin-K receptor [6]
  IC50: 4 µM
Cytochrome P450 2C9
  IC50: 66 µM
[7]
  half-life: > 4 h

## CC[C@H](NC(=O)c1c(O)c(-c2ccccc2)nc2ccccc12)c1ccccc1 [TALNETANT]
[8]
  inhibition: > 60%
[9]
  fraction unbound at 4 h, 5 µM: 0.01
[10]
  inhibition: > 60%
Rattus norvegicus [11]
  fCmax: 2.65 nM
[12]
  Papp B→A: 98.5 ×10⁻⁶ cm/s
[13]
  inhibition: > 60%
[14]
  inhibition: 12%
[15]
  fraction unbound at 4 h, 5 µM: 0.0003
In vivo [16]
  Vd: 1.5 L/kg
Rattus norvegicus [17]
  fAUC: 0.7 µM·min
[18]
  inhibition: > 60%
Rattus norvegicus [19]
  fAUC: 0.5 µM·min
In vivo [20]
  Tmax: 1 h
In vivo [5]
  bioavailability: 47%
[21]
  Papp A→B: 87.2 ×10⁻⁶ cm/s
[22]
  clearance: 2 mL/min/kg
[23]
  inhibition: > 60%
In vivo [24]
  half-life: 7.47 h

## CC(=O)N(C)C1(c2ccccc2)CCN(CCC[C@]2(c3ccc(Cl)c(Cl)c3)CCCN(C(=O)c3ccccc3)C2)CC1 [OSANETANT]
[25]
  inhibition: > 50%
[9]
  fraction unbound at 4 h, 5 µM: 0.001
[26]
  inhibition: > 50%
Rattus norvegicus [11]
  fCmax: 0.42 nM
[27]
  inhibition: > 50%
[28]
  inhibition: 75%
[29]
  inhibition: > 50%
[4]
  logD: 3.4
[30]
  inhibition: > 50%
[31]
  inhibition: > 50%
[32]
  inhibition: > 50%
[14]
  inhibition: 100%
[15]
  fraction unbound at 4 h, 5 µM: 0.006
Rattus norvegicus [17]
  fAUC: 0.1 µM·min
[33]
  inhibition: > 50%
Rattus norvegicus [19]
  fAUC: 0.2 µM·min
In vivo [20]
  Tmax: 0.75 h
[34]
  inhibition: > 50%
[35]
  inhibition: > 50%
[36]
  inhibition: > 50%
[37]
  inhibition: > 50%
[38]
  inhibition: > 50%
In vivo [24]
  half-life: 2.02 h
[39]
  inhibition: > 50%

## CC(C)NCC(O)COc1cccc2ccccc12 (configuration not stated) [PROPRANOLOL]
[40]
  Ratio: 1
[12]
  Papp B→A: ≥ 45 ×10⁻⁶ cm/s
[21]
  Papp A→B: ≥ 45 ×10⁻⁶ cm/s

Source: ChEMBL document CHEMBL3421625, “Discovery and optimization of novel antagonists to the human neurokinin-3 receptor for the treatment of sex-hormone disorders (Part I)” (J Med Chem, 2015)
